Laboratory results: US20100189648A1, “INHIBITORS FOR DISRUPTING THE INTERACTION OF UBIQUITINATION RELATED ENZYMES AND USES THEREOF” (priority 2006, published 2010)
In brackets after ≈: the same amount, converted by molar mass. Where two headings read alike, the source gives them in different places.

Tests used:
Format in all cases: cell-based, human
[1] = system: A459; assay: MTT survival assay, lung cancer cell line (A459); details: A459
Procedure: (§1) The effect of the above identified compounds on anti-tumor activity in human carcinoma cells was determined by the MTT survival assay. The MTT assay is a commonly used method in evaluation of cell survival, based on the ability of viable cells to convert MTT (MTT, Sigma, Cat No. 044K5307), a soluble tetrazolium salt [3-(4,5-dimethylthuazole-2-yl)-2,5 diphenyl tetrazolium bromide], into an insoluble formazan precipitate, which is quantitated by spectrophotometry following solubilization in dimethyl sulfoxide (DMSO).
(§2) In brief, different carcinoma cells were treated with negative control, various test articles at different concentration, and positive control (DDP), in 96-well tissue culture dishes. Each test article at different concentration is repeated 3 times.
(§3) Different carcinoma cells were diluted with 10% FBS and RPM1640 or MEM media to a concentration of 3-5×10^4 per ml suspension. 100 microliter of cells were incubated in each well in 96-well tissue culture dishes at 37 C. The cells were incubated at 37 C on the first day. On the second day, media supernatant was removed and replaced with media and different concentration of test articles (100 microliter in each well). Three Negative control wells and three positive control (DDP) wells were also included. The 96-well plate were incubated at 37 C for another 68 hours. After 68 hours, supernatant of each well was removed. 100 microliter of 1 mg/ml MTT diluted in PBS was injected into each well. The cells were incubated at 37 C for another 4 hours. The cells were then solubilized in 150 microliter DMSO, mixed for 10 minutes and absorbance readings were taken using Microplate reader Bio-Rad Model 550 at 570 nm. IR (cell growth inhibition rate) % was calculated as (OD570 of negative control-OD570 with test article)/OD570 of negative control. IC50 (cell 50% inhibition concentration) at 95% confidence level was calculated with Bliss method.

[2] = system: SKOV3; assay: MTT survival assay, ovarian cancer cell line (SKOV3); details: SKOV3 (first table)
Procedure: as §1, §2, §3

[3] = system: MCF-7; assay: MTT survival assay, breast cancer cell line (MCF-7); details: for IC50: Homo sapiens
Procedure: as §1, §2, §3

[4] = system: SMMC-7721; assay: MTT survival assay, liver cancer cell line (SMMC-7721); details: SMMC-7721
Procedure: as §1, §2, §3

[5] = system: U251; assay: MTT survival assay, glioma cell line (brain tumor U251); details: U251 (first table)
Procedure: as §1, §2, §3

[6] = system: Hela cells; assay: MTT survival assay, cervical cancer line (Hela cells)
Procedure: as §1, §2, §3

Q: COc1ccccc1NC(=O)CSc1nc(-c2ccccc2)nc2ccccc12 [Mol 44] was tested. Which “IR (%)” value ([1]; 1.56 μg/ml) did it give?
A: Its value is 0.6%.

Q: What about the “OD(A570 nm)” value ([1]; 1.56 μg/ml) of the same compound?
A: Its value is 0.634 ± 0.009.

Q: What about the “IR (%)” value ([1]; 3.125 μg/ml) of the same compound?
A: The value was −23.3%.

Q: What about the “OD(A570 nm)” value ([1]; 3.125 μg/ml) of the same compound?
A: Its value is 0.786 ± 0.048.

Q: And the “IR (%)” value ([1]; 6.25 μg/ml)?
A: The value was −6.8%.

Q: And the “OD(A570 nm)” value ([1]; 6.25 μg/ml)?
A: The value was 0.680 ± 0.015.

Q: What about the “IR (%)” value ([1]; 12.5 μg/ml) of the same compound?
A: The value was 8.1%.

Q: What about the “OD(A570 nm)” value ([1]; 12.5 μg/ml) of the same compound?
A: The value was 0.586 ± 0.051.

Q: What about the “IR (%)” value ([1]; 25 μg/ml) of the same compound?
A: Its value is 21.0%.

Q: What about the “OD(A570 nm)” value ([1]; 25 μg/ml) of the same compound?
A: Its value is 0.504 ± 0.046.

Q: And the “IR (%)” value ([1]; 50 μg/ml)?
A: Its value is 42.3%.

Q: What about the “OD(A570 nm)” value ([1]; 50 μg/ml) of the same compound?
A: Its value is 0.368 ± 0.039.

Q: What about the IC50 ([1]; Homo sapiens, Bliss method, unit not printed (concentrations in μg/ml), read-out: IC50 (95% confidence level)) of the same compound?
A: The IC50 was 150 µg/mL (≈ 374 µM).

Q: And the IC50 ([2]; Homo sapiens, SK-OV-3, Bliss method, unit not printed (concentrations in μg/ml), read-out: IC50 (95% confidence level))?
A: Its IC50 is 60 µg/mL (≈ 149 µM).

Q: What about the “IR (%)” value ([2]; 1.56 μg/ml) of the same compound?
A: Its value is 27.9%.

Q: And the “OD(A570 nm)” value ([2]; 1.56 μg/ml)?
A: The value was 0.505 ± 0.029.

Q: What about the “IR (%)” value ([2]; 3.125 μg/ml) of the same compound?
A: The value was 23.9%.

Q: What about the “OD(A570 nm)” value ([2]; 3.125 μg/ml) of the same compound?
A: Its value is 0.533 ± 0.017.

Q: And the “IR (%)” value ([2]; 6.25 μg/ml)?
A: The value was 23.0%.

Q: What about the “OD(A570 nm)” value ([2]; 6.25 μg/ml) of the same compound?
A: The value was 0.539 ± 0.023.

Q: And the “IR (%)” value ([2]; 12.5 μg/ml)?
A: Its value is 25.1%.

Q: And the “OD(A570 nm)” value ([2]; 12.5 μg/ml)?
A: The value was 0.525 ± 0.035.

Q: And the “IR (%)” value ([2]; 25 μg/ml)?
A: The value was 39.1%.

Q: And the “OD(A570 nm)” value ([2]; 25 μg/ml)?
A: Its value is 0.426 ± 0.008.

Q: What about the “IR (%)” value ([2]; 50 μg/ml) of the same compound?
A: The value was 52.4%.

Q: And the “OD(A570 nm)” value ([2]; 50 μg/ml)?
A: Its value is 0.333 ± 0.008.

Q: What about the “IR (%)” value ([3]; 1.56 μg/ml) of the same compound?
A: The value was 13.3%.

Q: What about the “OD(A570 nm)” value ([3]; 1.56 μg/ml) of the same compound?
A: The value was 0.787 ± 0.176.

Q: What about the “IR (%)” value ([3]; 3.125 μg/ml) of the same compound?
A: Its value is 12.8%.

Q: And the “OD(A570 nm)” value ([3]; 3.125 μg/ml)?
A: Its value is 0.811 ± 0.109.

Q: And the “IR (%)” value ([3]; 6.25 μg/ml)?
A: Its value is 10.2%.

Q: And the “OD(A570 nm)” value ([3]; 6.25 μg/ml)?
A: Its value is 0.791 ± 0.151.

Q: And the “IR (%)” value ([3]; 12.5 μg/ml)?
A: Its value is 12.4%.

Q: And the “OD(A570 nm)” value ([3]; 12.5 μg/ml)?
A: The value was 0.791 ± 0.151.

Q: And the “IR (%)” value ([3]; 25 μg/ml)?
A: Its value is 34.9%.

Q: And the “OD(A570 nm)” value ([3]; 25 μg/ml)?
A: Its value is 0.587 ± 0.030.

Q: What about the “IR (%)” value ([3]; 50 μg/ml) of the same compound?
A: The value was 41.6%.

Q: And the “OD(A570 nm)” value ([3]; 50 μg/ml)?
A: The value was 0.527 ± 0.035.

Q: And the IC50 ([3]; MCF7, 95% confidence limits of IC50, read-out: IC50 (95% confidence level), interval)?
A: The IC50 was 71.3 to 551 µg/mL (≈ 178 to 1370 µM).

Q: What about the IC50 ([3]; MCF7, Bliss method, unit not printed (concentrations in μg/ml), read-out: IC50 (95% confidence level)) of the same compound?
A: Its IC50 is 145 µg/mL (≈ 362 µM).

Q: What about the “IR (%)” value ([4]; 1.56 μg/ml) of the same compound?
A: Its value is 37.6%.

Q: What about the “OD(A570 nm)” value ([4]; 1.56 μg/ml) of the same compound?
A: Its value is 0.275 ± 0.004.

Q: What about the “IR (%)” value ([4]; 3.125 μg/ml) of the same compound?
A: Its value is 27.2%.

Q: And the “OD(A570 nm)” value ([4]; 3.125 μg/ml)?
A: Its value is 0.321 ± 0.088.

Q: And the “IR (%)” value ([4]; 6.25 μg/ml)?
A: Its value is 38.3%.

Q: What about the “OD(A570 nm)” value ([4]; 6.25 μg/ml) of the same compound?
A: Its value is 0.272 ± 0.019.

Q: What about the “IR (%)” value ([4]; 12.5 μg/ml) of the same compound?
A: The value was 11.1%.

Q: And the “OD(A570 nm)” value ([4]; 12.5 μg/ml)?
A: Its value is 0.392 ± 0.039.

Q: And the “IR (%)” value ([4]; 25 μg/ml)?
A: The value was 15.4%.

Q: What about the “OD(A570 nm)” value ([4]; 25 μg/ml) of the same compound?
A: Its value is 0.373 ± 0.019.

Q: What about the “IR (%)” value ([4]; 50 μg/ml) of the same compound?
A: The value was 21.6%.

Q: And the “OD(A570 nm)” value ([4]; 50 μg/ml)?
A: Its value is 0.345 ± 0.025.

Q: And the IC50 ([5]; Homo sapiens, U-251, Bliss method, unit not printed (concentrations in μg/ml), read-out: IC50 (95% confidence level))?
A: Its IC50 is 129 µg/mL (≈ 322 µM).

Q: And the “IR (%)” value ([5]; 1.56 μg/ml)?
A: Its value is 9.9%.

Q: And the “OD(A570 nm)” value ([5]; 1.56 μg/ml)?
A: Its value is 0.790 ± 0.086.

Q: What about the “IR (%)” value ([5]; 3.125 μg/ml) of the same compound?
A: Its value is 19.6%.

Q: And the “OD(A570 nm)” value ([5]; 3.125 μg/ml)?
A: The value was 0.705 ± 0.061.

Q: And the “IR (%)” value ([5]; 6.25 μg/ml)?
A: Its value is 1.2%.

Q: What about the “OD(A570 nm)” value ([5]; 6.25 μg/ml) of the same compound?
A: Its value is 0.866 ± 0.090.

Q: And the “IR (%)” value ([5]; 12.5 μg/ml)?
A: The value was 7.5%.

Q: And the “OD(A570 nm)” value ([5]; 12.5 μg/ml)?
A: Its value is 0.811 ± 0.050.

Q: What about the “IR (%)” value ([5]; 25 μg/ml) of the same compound?
A: Its value is 15.9%.

Q: And the “OD(A570 nm)” value ([5]; 25 μg/ml)?
A: Its value is 0.737 ± 0.067.

Q: And the “IR (%)” value ([5]; 50 μg/ml)?
A: The value was 24.9%.

Q: What about the “OD(A570 nm)” value ([5]; 50 μg/ml) of the same compound?
A: The value was 0.659 ± 0.047.

Q: And the “IR (%)” value ([6]; 0.07 μg/ml)?
A: Its value is 19.3%.

Q: And the “OD(A570 nm)” value ([6]; 0.07 μg/ml)?
A: The value was 0.599 ± 0.109.

Q: What about the “IR (%)” value ([6]; 0.21 μg/ml) of the same compound?
A: The value was 11.8%.

Q: What about the “OD(A570 nm)” value ([6]; 0.21 μg/ml) of the same compound?
A: The value was 0.655 ± 0.007.

Q: What about the “OD(A570 nm)” value ([6]; 0.62 μg/ml) of the same compound?
A: Its value is 0.765 ± 0.200.

Q: What about the “IR (%)” value ([6]; 1.85 μg/ml) of the same compound?
A: Its value is 0.8%.

Q: What about the “OD(A570 nm)” value ([6]; 1.85 μg/ml) of the same compound?
A: The value was 0.737 ± 0.113.

Q: What about the “IR (%)” value ([6]; 5.56 μg/ml) of the same compound?
A: Its value is 9.7%.

Q: What about the “OD(A570 nm)” value ([6]; 5.56 μg/ml) of the same compound?
A: The value was 0.671 ± 0.044.

Q: And the “IR (%)” value ([6]; 16.67 μg/ml)?
A: The value was 7.4%.

Q: What about the “OD(A570 nm)” value ([6]; 16.67 μg/ml) of the same compound?
A: The value was 0.688 ± 0.045.
